Results on 19 compounds are retold here after ChEMBL document CHEMBL1146712, “Synthesis and biological evaluation of [4-(2-phenylethenesulfonylmethyl)phenyl]-quinazolin-4-yl-amines as orally active anti-cancer agents” (2004).

The subject of one experiment is ACHN. As to the kind of experiment: Concentration required to inhibit growth of human renal (ACHN) cell line. It is filed as functional.
For a further experiment, the system named is HT-29. As to the kind of experiment: Concentration required to inhibit growth of human colon (HT-29) cell line. It is filed as functional.
The next experiment concerns NCI/ADR-RES. In words: in vitro inhibition of MCF-7/ADR (human breast cancer) cell growth. The format is functional.
The subject of a further experiment is MCF7. As to the kind of experiment: Concentration required to inhibit growth of human breast (MCF-7) cell line. The format is functional.
A further experiment deals with OVCAR-8. In words: Concentration required to inhibit growth of human ovarian (OVCAR8) cell line. It is filed as functional.
The next experiment deals with PC-3. As to the kind of experiment: Concentration required to inhibit growth of human prostate (PC3) cell line. It is filed as functional.
A further experiment deals with SK-OV-3. As to the kind of experiment: Concentration required to inhibit growth of human ovarian (SK-OV3) cell line. It is filed as functional.
The next experiment has as its system SW-620. In words: Concentration required to inhibit growth of human colon (SW620) cell line. It is filed as functional.
For the next experiment, the system named is UACC-62. In words: Concentration required to inhibit growth of human melanoma (UACC62) cell line. It is filed as functional.
The subject of a further experiment is U-251. In words: Concentration required to inhibit growth of human CNS (U251) cell line. The format is functional.
Another experiment concerns NCI-H522 (Homo sapiens). As to the kind of experiment: Concentration required to inhibit growth of human lung (H522) cell line.
For another experiment, the system named is DU-145. In words: In vitro inhibition of DU145 (human prostate cancer) cell growth. The format is functional.

Turning to `O=S(=O)(/C=C/c1ccc(F)cc1Cl)Cc1ccc(Nc2ncnc3ccccc23)cc1`, the GI50 with ACHN was determined as 73 µM; in the experiment with HT-29 it was 100 µM; in the experiment on NCI/ADR-RES, 66 µM; in the experiment on MCF7 it was 21 µM; with OVCAR-8 it was 100 µM; in the experiment on PC-3 it was 100 µM. The GI50 worked out at 44 µM in the experiment on SK-OV-3; 100 µM with SW-620; 100 µM in the experiment with UACC-62; 100 µM in the experiment on U-251; 100 µM with NCI-H522 (Homo sapiens).

`O=S(=O)(/C=C/c1ccc(C(F)(F)F)cc1F)Cc1ccc(Nc2ncnc3ccc(Br)cc23)cc1`: the GI50 with ACHN was 16 µM; in the experiment on HT-29 it was 100 µM; with NCI/ADR-RES, 85 µM; in the experiment with MCF7, 32 µM; in the experiment on OVCAR-8 it was 15 µM; in the experiment on PC-3 it was 58 µM. In addition, the concentration for 50% growth inhibition (GI50) in the experiment with SK-OV-3 turned out to be 5 µM; in the experiment with SW-620 it was 55 µM; in the experiment on UACC-62, 22 µM; in the experiment with U-251, 30 µM; in the experiment on NCI-H522 (Homo sapiens), 40 µM.

In the case of `O=S(=O)(/C=C/c1ccc(Br)cc1)Cc1ccc(Nc2ncnc3ccc(Br)cc23)cc1`, the GI50 was 3 µM with DU-145; 10 µM in the experiment on HT-29; 5 µM in the experiment on MCF7; 2 µM in the experiment with OVCAR-8; 34 µM with PC-3; > 100 µM with SW-620. In addition, the GI50 in the experiment on UACC-62 was > 100 µM; with U-251, 11 µM; in the experiment with NCI-H522 (Homo sapiens), 20 µM.

Take `O=S(=O)(/C=C/c1ccc(Cl)c(Cl)c1)Cc1ccc(Nc2ncnc3ccccc23)cc1`: the 50% growth inhibitory concentration (GI50) was 28 µM in the experiment on ACHN; 11 µM in the experiment with HT-29; 22 µM in the experiment on NCI/ADR-RES; 28 µM in the experiment with MCF7; 14 µM in the experiment on OVCAR-8; 35 µM with PC-3. The GI50 was determined as 22 µM in the experiment on SK-OV-3; 41 µM in the experiment with SW-620; 21 µM in the experiment on UACC-62; 11 µM in the experiment with U-251; 32 µM in the experiment with NCI-H522 (Homo sapiens).

In the case of `CC(C)(C)c1cc(/C=C/S(=O)(=O)Cc2ccc(Nc3ncnc4ccccc34)cc2)cc(C(C)(C)C)c1O`, the GI50 is > 100 µM with ACHN; 1 µM in the experiment with DU-145; 17 µM with HT-29; > 100 µM in the experiment on NCI/ADR-RES; 13 µM in the experiment with MCF7; 5 µM with OVCAR-8. Further, the GI50 is 7 µM in the experiment on PC-3; 3 µM with SK-OV-3; 9 µM with SW-620; 6 µM with UACC-62; 38 µM in the experiment with U-251; 45 µM in the experiment with NCI-H522 (Homo sapiens).

As to `O=S(=O)(/C=C/c1ccccc1)Cc1ccc(Nc2ncnc3ccccc23)cc1`, the GI50 with ACHN is 58 µM; in the experiment with DU-145, 2 µM; with HT-29 it was > 100 µM; with NCI/ADR-RES, > 100 µM; in the experiment on MCF7, 74 µM; with OVCAR-8, > 100 µM. For the same compound, the GI50 in the experiment on PC-3 was > 100 µM; in the experiment with SK-OV-3 it was 5 µM; in the experiment with SW-620 it was > 100 µM; in the experiment on UACC-62, > 100 µM; with U-251, > 100 µM; in the experiment on NCI-H522 (Homo sapiens) it was > 100 µM.

For `O=S(=O)(/C=C/c1ccc(O)cc1)Cc1ccc(Nc2ncnc3ccccc23)cc1`, the GI50 was 0.02 µM with ACHN; 19 µM in the experiment with DU-145; 2 µM with HT-29; 100 µM with MCF7; 1 µM with OVCAR-8; 14 µM in the experiment with PC-3. Also, the GI50 in the experiment on SK-OV-3 was determined as 14 µM; in the experiment on SW-620 it was 100 µM; with UACC-62, 100 µM; in the experiment on U-251, 0.3 µM; with NCI-H522 (Homo sapiens), 100 µM.

For the compound `COc1cc2ncnc(Nc3ccc(CS(=O)(=O)/C=C/c4ccc(F)cc4)cc3)c2cc1OC`, the GI50 in the experiment with ACHN, with DU-145, with HT-29, with NCI/ADR-RES, in the experiment with MCF7 and in the experiment on OVCAR-8 was > 100 µM in each case. For the same compound, the GI50 in the experiment on PC-3, in the experiment with SK-OV-3, in the experiment on SW-620, with UACC-62, with U-251 and with NCI-H522 (Homo sapiens) was > 100 µM each time.

Turning to `COc1cc2ncnc(Nc3ccc(CS(=O)(=O)/C=C/c4ccc(F)cc4)cc3)c2cc1OCCN1CCOCC1`, the GI50 in the experiment with ACHN is 66 µM; with HT-29 it was 100 µM; with MCF7, 100 µM; with OVCAR-8, 48 µM; with PC-3, 100 µM; with SK-OV-3, 36 µM. The GI50 in the experiment on SW-620, with UACC-62, with U-251 and with NCI-H522 (Homo sapiens) was 100 µM each time.

For the compound `COc1cc2ncnc(Nc3ccc(CS(=O)(=O)/C=C/c4ccc(Br)cc4)cc3)c2cc1OC`, the GI50 with ACHN is 4 µM; with HT-29 it was 24 µM; with NCI/ADR-RES it was 72 µM; with MCF7, 32 µM; with OVCAR-8 it was 6 µM; in the experiment with PC-3, 9.5 µM. For the same compound, the GI50 in the experiment with SK-OV-3 is 50 µM; in the experiment on SW-620, 5 µM; in the experiment with UACC-62 it was 63 µM; in the experiment with U-251, 11 µM; in the experiment on NCI-H522 (Homo sapiens) it was 8 µM.

On to `O=S(=O)(/C=C/c1ccc(O)cc1)Cc1ccc(Nc2ncnc3ccc(Br)cc23)cc1`, for which the GI50 with DU-145 is 3 µM; in the experiment with HT-29 it was 9 µM; with MCF7 it was 32 µM; in the experiment on OVCAR-8 it was > 100 µM; in the experiment with PC-3, 42 µM; in the experiment on SW-620, 94 µM. The GI50 in the experiment with UACC-62 was 28 µM; in the experiment on U-251 it was > 100 µM; in the experiment on NCI-H522 (Homo sapiens), 27 µM.

On to `O=S(=O)(/C=C/c1ccc(C(F)(F)F)cc1F)Cc1ccc(Nc2ncnc3ccccc23)cc1`, for which the GI50 in the experiment with ACHN, in the experiment with HT-29, in the experiment on NCI/ADR-RES, in the experiment with MCF7, in the experiment on OVCAR-8 and in the experiment on PC-3 was 100 µM each time. Moreover, the GI50 in the experiment on SK-OV-3 turned out to be 39 µM; with SW-620 it was 100 µM; in the experiment with UACC-62 it was 100 µM; with U-251, 100 µM; in the experiment on NCI-H522 (Homo sapiens), 100 µM.

For `O=S(=O)(/C=C/c1ccc(Cl)c(Cl)c1)Cc1ccc(Nc2ncnc3ccc(Br)cc23)cc1`, the GI50 with DU-145 turned out to be 17 µM; in the experiment on HT-29, 27 µM; in the experiment on MCF7, 14 µM; with OVCAR-8, 0.1 µM; with PC-3, 11 µM; with SW-620, 5 µM. Besides, the GI50 is 30 µM with UACC-62, > 100 µM with U-251 and > 100 µM with NCI-H522 (Homo sapiens).

Consider `O=S(=O)(/C=C/c1ccc(Cl)cc1Cl)Cc1ccc(Nc2ncnc3cc(Cl)ccc23)cc1`, for which the concentration for 50% growth inhibition (GI50) is 8 µM with ACHN; 59 µM in the experiment with HT-29; > 100 µM in the experiment on NCI/ADR-RES; 25 µM with MCF7; > 100 µM with OVCAR-8; 38 µM in the experiment with PC-3. The GI50 with SK-OV-3 is 48 µM; with SW-620, > 100 µM; in the experiment on UACC-62, 32 µM; in the experiment on U-251, 53 µM; in the experiment with NCI-H522 (Homo sapiens), 76 µM.

As for `O=S(=O)(/C=C/c1ccc(Cl)cc1)Cc1ccc(Nc2ncnc3ccc(Br)cc23)cc1`, the GI50 in the experiment with DU-145 is 1 µM; with HT-29, > 100 µM; in the experiment with MCF7, 46 µM; in the experiment on OVCAR-8, 3 µM; with PC-3 it was 2 µM; with SW-620, 45 µM. Moreover, the GI50 came to 15 µM in the experiment with UACC-62, 30 µM in the experiment on U-251 and 13 µM with NCI-H522 (Homo sapiens).

On to `O=S(=O)(/C=C/c1ccc(F)cc1F)Cc1ccc(Nc2ncnc3ccccc23)cc1`, for which the GI50 in the experiment with ACHN was 31 µM; in the experiment with HT-29, > 100 µM; in the experiment on NCI/ADR-RES it was > 100 µM; in the experiment with MCF7, > 100 µM; in the experiment with OVCAR-8, > 100 µM; in the experiment on PC-3 it was > 100 µM. Moreover, the GI50 with SK-OV-3 was 69 µM; in the experiment with SW-620 it was 86 µM; in the experiment with UACC-62 it was > 100 µM; with U-251, > 100 µM.

Take `COc1cc2ncnc(Nc3ccc(CS(=O)(=O)/C=C/c4ccc(Cl)cc4Cl)cc3)c2cc1OCCCN1CCOCC1`: the GI50 in the experiment on ACHN is 3.4 µM; in the experiment with DU-145 it was 1.3 µM; in the experiment with HT-29, 4 µM; in the experiment with NCI/ADR-RES it was > 100 µM; with MCF7 it was 54 µM; with OVCAR-8, 12 µM. Further, the GI50 with PC-3 amounted to 5 µM; in the experiment on SK-OV-3, 2.4 µM; in the experiment with SW-620, 7 µM; in the experiment on UACC-62, 23 µM; in the experiment with U-251, 4 µM.

`O=S(=O)(/C=C/c1ccc(F)cc1F)Cc1ccc(Nc2ncnc3ccc(Br)cc23)cc1`: the GI50 in the experiment on ACHN came to 8 µM; in the experiment with HT-29 it was 100 µM; in the experiment on NCI/ADR-RES, 100 µM; in the experiment with MCF7, 100 µM; in the experiment with OVCAR-8, 100 µM; with PC-3, 100 µM. Moreover, the GI50 in the experiment on SK-OV-3 is 2 µM; in the experiment with SW-620, 100 µM; in the experiment with UACC-62, 3 µM; in the experiment on U-251, 32 µM; in the experiment on NCI-H522 (Homo sapiens) it was 100 µM.

Regarding `O=S(=O)(/C=C/c1ccc(F)cc1Cl)Cc1ccc(Nc2ncnc3cc(Cl)ccc23)cc1`, the GI50 is 17 µM in the experiment with ACHN; 37 µM with DU-145; > 100 µM in the experiment on HT-29; > 100 µM in the experiment on NCI/ADR-RES; 15 µM with MCF7; > 100 µM in the experiment on OVCAR-8. The 50% growth inhibitory concentration (GI50) was 73 µM with PC-3; > 100 µM in the experiment on SK-OV-3; > 100 µM in the experiment on SW-620; 72 µM with UACC-62; 2 µM in the experiment with U-251.

In general, GI50 refers to the concentration that inhibits growth by half.
